Test system: hsCRP
Experiment: ANCHOR study, hsCRP (also by statin type and statin efficacy regimen)
Format: in vivo, human
Excerpt: Parameters (a)-(y) can be measured in accordance with any clinically acceptable methodology. For example, triglycerides, total cholesterol, HDL-C and fasting blood sugar can be sample from serum and analyzed using standard photometry techniques. VLDL-TG, LDL-C and VLDL-C can be calculated or determined using serum lipoprotein fractionation by preparative ultracentrifugation and subsequent quantitative analysis by refractometry or by analytic ultracentrifugal methodology. Apo A1, Apo B and hsCRP can be determined from serum using standard nephelometry techniques. Lipoprotein (a) can be determined from serum using standard turbidimetric immunoassay techniques. LDL particle number and particle size can be determined using nuclear magnetic resonance (NMR) spectrometry. Remnants lipoproteins and LDL-phospholipase A2 can be determined from EDTA plasma or serum and serum, respectively, using enzymatic immunoseparation techniques. Oxidized LDL, intercellular adhesion molecule-1 and interleukin-2 levels can be determined from serum using standard enzyme immunoassay techniques. These techniques are described in detail in standard textbooks, for example Tietz Fundamentals of Clinical Chemistry, 6th Ed. (Burtis, Ashwood and Borter Eds.), WB Saunders Company.
A multi-center, placebo-controlled, randomized, double-blind, 12-week study was performed to evaluate the efficacy and safety of >96% E-EPA in patients with fasting triglyceride levels ≧200 mg/dl and <500 mg/dl despite statin therapy (the mean of two qualifying entry values needed to be ≧185 mg/dl and at least one of the values needs to be ≧200 mg/dl). The primary objective of the study was to determine the efficacy of >96% E-EPA 2 g daily and 4 g daily, compared to placebo, in lowering fasting TG levels in patients with high risk for cardiovascular disease and with fasting TG levels ≧200 mg/dL and <500 mg/dL, despite treatment to LDL-C goal on statin therapy.
The population for this study was men and women >18 years of age with a body mass index ≦45 kg/m^2 with fasting TG levels greater than or equal to 200 mg/dl and less than 500 mg/dl and on a stable does of statin therapy (with or without ezetimibe). The statin must have been atorvostatin, rosuvastatin or simvastatin. The dose of statin must have been stable for ≧4 weeks prior to the LDL-C/TG baseline qualifying measurement for randomization. The statin dose was optimal such that the patients are at their LDL-C goal at the LDL-C/TG baseline qualifying measurements. The same statin at the same dose was continued until the study ended.
Approximately 648 patients were randomized at approximately 80 centers in the U.S. The study was a 18- to 20-week, Phase 3, multi-center study consisting of 2 study periods: (1) A 6- to 8-week screening period that included a diet and lifestyle stabilization, a non-statin lipid-altering treatment washout, and an LDL-C and TG qualifying period and (2) A 12-week, double-blind, randomized, placebo-controlled treatment period.
After confirmation of qualifying fasting LDL-C and TG values, eligible patients entered a 12-week, randomized, double-blind treatment period. At Visit 4 (Week 0), patients were randomly assigned to 1 of the following treatment groups: • >96% E-EPA 2 g daily, • >96% E-EPA 4 g daily, or • Placebo.
Approximately 216 patients per treatment group were randomized in this study. Stratification was by type of statin (atorvastatin, rosuvastatin or simvastatin), the presence of diabetes, and gender. […]

SMILES: CC/C=C\C/C=C\C/C=C\C/C=C\C/C=C\CCCC(=O)OCC [AMR101, all-cis eicosa-5,8,11,14,17-pentaenoic acid ethyl ester]
- hsCRP end-of-treatment value, median (ANCHOR ITT, 2 g/day, week 12): 2.5 mg/L
- hsCRP change from baseline (median) (ANCHOR ITT, 4 g/day, week 12): −2.4%
- hsCRP end-of-treatment value, median (ANCHOR ITT, 4 g/day, week 12): 2.0 mg/L
- hsCRP median placebo-adjusted % change from baseline (ANCHOR, atorvastatin, AMR101 2 g/day vs placebo, P 0.6563): −9.3%
- hsCRP change from baseline, median % (ANCHOR, atorvastatin, AMR101 2 g/day, week 12): 20.1%
- hsCRP end-of-treatment value, median (ANCHOR, atorvastatin, AMR101 2 g/day, week 12, baseline 1.7): 2.3 mg/L
- hsCRP median placebo-adjusted % change from baseline (ANCHOR, atorvastatin, AMR101 4 g/day vs placebo, P 0.0475): −36.7%
- hsCRP change from baseline, median % (ANCHOR, atorvastatin, AMR101 4 g/day, week 12): −11.7%
- hsCRP end-of-treatment value, median (ANCHOR, atorvastatin, AMR101 4 g/day, week 12, baseline 2.1): 1.5 mg/L
- hsCRP median placebo-adjusted % change from baseline (ANCHOR, higher-efficacy statin regimen, AMR101 2 g/day vs placebo, P 0.5227): −8.3%
- hsCRP change from baseline, median % (ANCHOR, higher-efficacy statin regimen, AMR101 2 g/day, week 12): 16.7%
- hsCRP end-of-treatment value, median (ANCHOR, higher-efficacy statin regimen, AMR101 2 g/day, week 12, baseline 1.7): 2.2 mg/L
- hsCRP median placebo-adjusted % change from baseline (ANCHOR, higher-efficacy statin regimen, AMR101 4 g/day vs placebo, P 0.0210): −28.6%
- hsCRP change from baseline, median % (ANCHOR, higher-efficacy statin regimen, AMR101 4 g/day, week 12): 0.0%
- hsCRP end-of-treatment value, median (ANCHOR, higher-efficacy statin regimen, AMR101 4 g/day, week 12, baseline 2.5): 2.0 mg/L
- hsCRP change from baseline, median % (ANCHOR, lower-efficacy statin regimen, AMR101 2 g/day, week 12): 13.3%
- hsCRP end-of-treatment value, median (ANCHOR, lower-efficacy statin regimen, AMR101 2 g/day, week 12, baseline 1.5): 1.7 mg/L
- hsCRP median placebo-adjusted % change from baseline (ANCHOR, lower-efficacy statin regimen, AMR101 4 g/day vs placebo, P 0.8843): 4.0%
- hsCRP change from baseline, median % (ANCHOR, lower-efficacy statin regimen, AMR101 4 g/day, week 12): 11.9%
- hsCRP end-of-treatment value, median (ANCHOR, lower-efficacy statin regimen, AMR101 4 g/day, week 12, baseline 2.1): 2.4 mg/L
- hsCRP median placebo-adjusted % change from baseline (ANCHOR, medium-efficacy statin regimen, AMR101 2 g/day vs placebo, P 0.2839): −8.3%
- hsCRP change from baseline, median % (ANCHOR, medium-efficacy statin regimen, AMR101 2 g/day, week 12): 8.7%
- hsCRP end-of-treatment value, median (ANCHOR, medium-efficacy statin regimen, AMR101 2 g/day, week 12, baseline 2.3): 2.6 mg/L
- hsCRP median placebo-adjusted % change from baseline (ANCHOR, medium-efficacy statin regimen, AMR101 4 g/day vs placebo, P 0.0034): −22.8%
- hsCRP change from baseline, median % (ANCHOR, medium-efficacy statin regimen, AMR101 4 g/day, week 12): −7.7%
- hsCRP end-of-treatment value, median (ANCHOR, medium-efficacy statin regimen, AMR101 4 g/day, week 12, baseline 2.2): 1.8 mg/L
- hsCRP median placebo-adjusted % change from baseline (ANCHOR, rosuvastatin, AMR101 2 g/day vs placebo, P 0.3922): −11.0%
- hsCRP change from baseline, median % (ANCHOR, rosuvastatin, AMR101 2 g/day, week 12): 0.0%
- hsCRP end-of-treatment value, median (ANCHOR, rosuvastatin, AMR101 2 g/day, week 12, baseline 1.6): 2.0 mg/L
- hsCRP median placebo-adjusted % change from baseline (ANCHOR, rosuvastatin, AMR101 4 g/day vs placebo, P 0.0217): −31.4%
- hsCRP change from baseline, median % (ANCHOR, rosuvastatin, AMR101 4 g/day, week 12): −1.2%
- hsCRP end-of-treatment value, median (ANCHOR, rosuvastatin, AMR101 4 g/day, week 12, baseline 2.6): 1.9 mg/L
- hsCRP median placebo-adjusted % change from baseline (ANCHOR, simvastatin, AMR101 2 g/day vs placebo, P 0.6562): −3.8%
- hsCRP change from baseline, median % (ANCHOR, simvastatin, AMR101 2 g/day, week 12): 11.0%
- hsCRP end-of-treatment value, median (ANCHOR, simvastatin, AMR101 2 g/day, week 12, baseline 2.2): 2.7 mg/L
- hsCRP median placebo-adjusted % change from baseline (ANCHOR, simvastatin, AMR101 4 g/day vs placebo, P 0.0755): −13.6%
- hsCRP change from baseline, median % (ANCHOR, simvastatin, AMR101 4 g/day, week 12): 0.0%
- hsCRP end-of-treatment value, median (ANCHOR, simvastatin, AMR101 4 g/day, week 12, baseline 2.2): 2.2 mg/L
- hsCRP median placebo-adjusted change from baseline (ANCHOR, 2 g/day, concomitant atorvastatin): statistically insignificant
- hsCRP median placebo-adjusted change from baseline (ANCHOR, 2 g/day, concomitant rosuvastatin): statistically insignificant
- hsCRP median placebo-adjusted change from baseline (ANCHOR, 2 g/day, concomitant simvastatin): statistically insignificant
- hsCRP median placebo-adjusted change from baseline (ANCHOR, 2 g/day, high-efficacy statin therapy): statistically insignificant
- hsCRP median placebo-adjusted change from baseline (ANCHOR, 2 g/day, low-efficacy statin therapy): statistically insignificant
- hsCRP median placebo-adjusted change from baseline (ANCHOR, 2 g/day, medium-efficacy statin therapy): statistically insignificant
- hsCRP median placebo-adjusted change from baseline (ANCHOR, 4 g/day, concomitant atorvastatin): −36.7%
- hsCRP median placebo-adjusted change from baseline (ANCHOR, 4 g/day, concomitant rosuvastatin): −31.4%
- hsCRP median placebo-adjusted change from baseline (ANCHOR, 4 g/day, concomitant simvastatin): statistically insignificant
- hsCRP median placebo-adjusted change from baseline (ANCHOR, 4 g/day, high-efficacy statin therapy): −28.6%
- hsCRP median placebo-adjusted change from baseline (ANCHOR, 4 g/day, low-efficacy statin therapy (e.g., simvastatin 5-10 mg/day)): statistically insignificant

Reference: patent US9827219B2, “Compositions and methods for lowering levels of high-sensitivity C-reactive protein (HS-CRP) in a subject” (priority 2012, dated 2017)
